Reference: publication PMC11433764, “A Novel Compound from the Phenylsulfonylpiperazine Class: Evaluation of In Vitro Activity on Luminal Breast Cancer Cells” (Molecules, 2024)
Like-named read-outs stand apart in the source and are kept apart here.

Key:
Type in all cases: cell-based
[1] = test system: MCF-10A; test: MTT cell viability, non-tumor cell line MCF-10A; settings: 48 h; for Cytotoxicity to the MCF-10A cell line (in words): up to 160 μM; for IC50: Homo sapiens, MCF-10A
Method: (§1) Four different breast cells lines were used in this study: MCF-10A (non-tumorigenic), MCF7 (ER+ BC), MDA-MB453 (HER2+ BC) and MDA-MB231 (TNBC). All lineages were obtained from the American Type Culture Collection (ATCC; Manassas, VA, USA) and maintained at a temperature of 37 °C according to the supplier’s recommendations. Only MDA-MB231 cells were not kept in an atmosphere of 5% CO2. MCF-10A was grown in Dulbecco’s Modified Eagle’s Medium (DMEM F12, Gibco, ThermoFisher Scientific, Waltham, MA, USA) supplemented with 20 ng/mL epidermal growth factor (Gibco, ThermoFisher Scientific, Waltham, MA, USA), 0.5 μg/mL hydrocortisone (Sigma-Aldrich, Sigma-Aldrich, St. Louis, MO, USA) and 10 μg/mL insulin (Gibco, ThermoFisher Scientific, Waltham, MA, USA). MCF7 was cultivated in Roswell Park Memorial Institute Medium (RPMI-1640, Gibco, ThermoFisher Scientific, Waltham, MA, USA), MDA-MB453 in IMDM and MDA-MB231 in Leibovitz’s medium (L-15, Gibco, ThermoFisher Scientific, Waltham, MA, USA). All media were supplemented with 10% fetal bovine serum (FBS, Gibco, ThermoFisher Scientific, Waltham, MA, USA) and 50 µg/mL of gentamicin (Cultilab, Campinas, SP, Brazil). The cells were confirmed to be free of mycoplasma and passaged using a 0.25% trypsin-EDTA solution when confluency reached 80–90%.
(§2) Cell viability was determined by spectrophotometric quantification of MTT (3-[4,5-dimethyl-thiazol-2-yl]-2,5-diphenyltetrazolium bromide—Invitrogen. Waltham, MA, USA) reduction to formazan crystals. Cells were seeded at the density of 1 × 10^4 cells/well (MCF-10A, MDA-MB453), 1.5 × 10^4 cells/well (MDA-MB231) and 3 × 10^3 cells/well (MCF7) in 96-well culture dishes and incubated with different concentrations of the compounds (1.25, 2.5, 5, 10, 20, 40, 80 and 160 µM) for 48 h. The medium was than replaced by MTT solution (0.5 mg/mL) and plates were kept at 37 °C for 4 h. After the aspiration of the media, the formazan crystals were diluted with 100 μL of dimethyl-sulfoxide (DMSO)/well and the absorbance at 570 nm was measured using a spectrophotometer (Thermo Plate TP-Reader, Waltham, MA, USA). Cytotoxicity was calculated using the following formula: Cytotoxicity (%) = [absorbance of cells treated with the compounds/absorbance of cells treated with DMSO) × 100]. The IC50 was determined for each compound and was defined as the concentration required to inhibit 50% of cell growth, compared to the control sample (cells treated with DMSO 0.05%).
(§3) Data were presented as the mean ± standard deviation (SD) and analyzed using GraphPad Prism 9.0 software (GraphPad Software Inc., La Jolla, CA, USA). All data were assayed in triplicate. Statistical analysis was performed using one-way ANOVA, Tukey´s HSD post hoc test and Student’s t-test. The IC50 was calculated using non-linear regression and the selectivity index (SI) was calculated by the ratio between the IC50 values corresponding to the non-tumor cell lineage (MCF-10A) and the IC50 values corresponding to the BC cell lines. Statistical significance was accepted at p values < 0.05.

[2] = test system: MCF7; test: MTT cell viability, MCF7; set-up: key to SI MCF7: NS: the compound was more active in the non-tumor cell line; settings: for IC50: Homo sapiens, MCF7, 48 h, MTT; for SI MCF7: IC50 MCF10A / IC50 MCF7
Method: as §1, §2, §3

[3] = test system: MDA-MB-231; test: MTT cell viability, MDA-MB-231; set-up: key to SI MDA-MB-231: NS: the compound was more active in the non-tumor cell line; settings: for IC50: Homo sapiens, MDA-MB-231, 48 h, MTT; for SI MDA-MB-231: IC50 MCF10A / IC50 MDA-MB-231
Method: as §1, §2, §3

[4] = test system: MDA-MB-453; test: MTT cell viability, MDA-MB-453; set-up: key to SI MDA-MB-453: NS: the compound was more active in the non-tumor cell line; settings: for IC50: Homo sapiens, MDA-MB-453, 48 h, MTT; for SI MDA-MB-453: IC50 MCF10A / IC50 MDA-MB-453
Method: as §1, §2, §3

[5] = test system: tumor cells MCF7, MDA-MB-453 and MDA-MB-231; test: MTT cell viability, tumor cells (stated collectively); settings: for IC50: 48 h, MTT, tumor cells stated collectively
Method: as §1, §2, §3

[6] = 1.25–160 μM, read-out: IC50 MCF-10A
[7] = 1.25–160 μM, read-out: IC50 MCF7
[8] = 1.25–160 μM, read-out: IC50 MDA-MB-231
[9] = 1.25–160 μM, read-out: IC50 MDA-MB-453
[10] = read-out: IC50 MCF-10A (Table S1)
[11] = read-out: IC50 MD-AMB 231 (Table S1)
[12] = read-out: IC50 MD-AMB 453 (Table S1)

| IC50 [5] [µM] | SMILES | Cytotoxicity to the MCF-10A cell line (in words) [1] | IC50 [1, 6] [µM] | IC50 [2, 7] [µM] | IC50 [3, 8] [µM] | SI MDA-MB-231 [3] | IC50 [4, 9] [µM] | SI MCF7 [2] | SI MDA-MB-453 [4] | Selectivity for tumor cells over MCF-10A (in words) [5] | IC50 [1, 10] [µM] | IC50 ([2]; read-out: IC50 MCF7 (Table S1)) [µM] | IC50 [3, 11] [µM] | IC50 [4, 12] [µM] |
| --- | --- | --- | --- | --- | --- | --- | --- | --- | --- | --- | --- | --- | --- | --- |
| > 50 | N#Cc1ccc(C(=O)N2CCN(S(=O)(=O)c3ccc(Cl)cc3)CC2)cc1 [Compound 1] | not cytotoxic | > 160 | > 160 | 84.9 | >1.88 | > 160 |  |  |  |  |  |  |  |
|  | CN(C)CCOc1ccc(C(=O)N2CCN(S(=O)(=O)c3ccc(Cl)cc3)CC2)cc1 [Compound 2] |  | 88.2 | > 160 | 61.3 | 1.44 | 50.5 | NS | 1.75 |  |  |  |  |  |
| > 50 | O=C(c1ccc(Cl)nc1)N1CCN(S(=O)(=O)c2ccc(Cl)cc2)CC1 [Compound 4] | not cytotoxic | > 160 | > 160 | 112 | >1.42 | > 160 |  |  |  |  |  |  |  |
| > 50 | CN(C)CCNc1ccc(C(=O)N2CCN(S(=O)(=O)c3ccc(Cl)cc3)CC2)cn1 [Compound 5] | not cytotoxic | > 160 | 82.9 | > 160 |  | > 160 | >1.93 |  |  |  |  |  |  |
| > 50 | CCOC(=O)c1ccc(N2CCN(S(=O)(=O)c3ccc(Cl)cc3)CC2)nc1 [Compound 6] | not cytotoxic | > 160 | > 160 | 53.1 | >3.01 | > 160 |  |  |  |  |  |  |  |
|  | O=S(=O)(c1ccc(Cl)cc1)N1CCN(c2ccc(CO)cn2)CC1 [Compound 7] |  | 91.2 | > 160 | 107 | 0.85 | > 160 | NS | NS |  |  |  |  |  |
|  | O=C(c1ccc(N2CCN(S(=O)(=O)c3ccc(Cl)cc3)CC2)nc1)N1CCCC1 [Compound 8] |  | 86 | 154 | 135 | NS | 92.5 | NS | NS |  |  |  |  |  |
|  | CN(C)C(=O)c1ccc(N2CCN(S(=O)(=O)c3ccc(Cl)cc3)CC2)nc1 [Compound 9] |  | 63.9 | > 160 | > 160 | NS | > 160 | NS | NS |  |  |  |  |  |
| < 50 | CN(C)Cc1ccc(N2CCN(S(=O)(=O)c3ccc(Cl)cc3)CC2)nc1 [Compound 10] |  | 109 | 62 | > 160 | NS | 48.4 | 1.75 | 2.25 |  |  |  |  |  |
|  | CN(C)Cc1ccc(N2CCN(S(=O)(=O)c3ccc(F)cc3)CC2)nc1 [Compound 11] |  | > 160 | 20 | > 160 |  | 109 |  | >1.47 |  |  |  |  |  |
| < 50 | CN(C)CCOc1ccc(N2CCN(S(=O)(=O)c3ccc(Cl)cc3)CC2)cc1 [Compound 12] |  | 68.3 | 49.9 | > 160 | NS | 136 | 1.37 | NS | not selective |  |  |  |  |
|  | O=S(=O)(c1ccc(Cl)cc1)N1CCNCC1 [Compound 13] |  |  |  |  |  |  |  |  |  | > 160 | > 160 | > 160 | > 160 |
|  | Cc1ccc(S(=O)(=O)N2CCN(c3ccc(C(=O)N(C)C)cn3)CC2)cc1 [Compound 14] |  |  |  |  |  |  |  |  |  | > 160 | > 160 | > 160 | > 160 |
|  | CN(C)C(=O)c1ccc(N2CCN(S(=O)(=O)c3ccccc3)CC2)nc1 [Compound 15] |  |  |  |  |  |  |  |  |  | > 160 | > 160 | > 160 | > 160 |
|  | O=C(O)c1ccc(N2CCN(S(=O)(=O)c3ccc(Cl)cc3)CC2)nc1 [Compound 16] |  |  |  |  |  |  |  |  |  | > 160 | > 160 | > 160 | > 160 |
|  | O=C(c1ccc(N2CCN(S(=O)(=O)c3ccc(Cl)cc3)CC2)nc1)N1CCOCC1 [Compound 17] |  |  |  |  |  |  |  |  |  | > 160 | > 160 | > 160 | > 160 |
|  | CN1CCN(C(=O)c2ccc(N3CCN(S(=O)(=O)c4ccc(Cl)cc4)CC3)nc2)CC1 [Compound 18] |  |  |  |  |  |  |  |  |  | > 160 | > 160 | > 160 | > 160 |
|  | O=S(=O)(c1ccc(F)cc1)N1CCN(c2ccccc2)CC1 [Compound 19] |  |  |  |  |  |  |  |  |  | > 160 | > 160 | > 160 | > 160 |
|  | O=S(=O)(c1ccc(Cl)cc1)N1CCN(c2ccc(O)cc2)CC1 [Compound 20] |  |  |  |  |  |  |  |  |  | > 160 | > 160 | > 160 | > 160 |
